Data from the NIST ThermoML archive (doi:10.1016/j.fluid.2009.07.002).

Assay: xn = mol fraction of the nth substance listed
Conditions: 101 kPa, Liquid, Taylor dispersion method

OCCO [1,2-ethanediol] + O
binary diffusion coefficient [m2/s]
Conditions	298.2 K	303.2 K	308.2 K	313.2 K	318.2 K	323.2 K
x1 = 0	1.1e-09	1.24e-09	1.38e-09	1.51e-09	1.68e-09	1.86e-09
x1 = 0.2	6.95e-10	8.14e-10	8.89e-10	9.8e-10	1.09e-09	1.19e-09
x1 = 0.4	4.82e-10	5.28e-10	5.8e-10	6.31e-10	7.57e-10	8.48e-10
x1 = 0.6	3.81e-10	4.02e-10	4.51e-10	5.18e-10	6e-10	6.88e-10
x1 = 0.8	3.18e-10	3.34e-10	4.05e-10	4.68e-10	5.24e-10	6.03e-10

OCCOCCO [diethylene glycol] + O
binary diffusion coefficient [m2/s]
Conditions	303.2 K	308.2 K	313.2 K	318.2 K	323.2 K
x1 = 0	1.04e-09	1.13e-09	1.25e-09	1.41e-09	1.53e-09
x1 = 0.2	4.69e-10	5.24e-10	6.02e-10	7.01e-10	7.83e-10
x1 = 0.4	3.18e-10	3.75e-10	4.45e-10	5.16e-10	5.71e-10
x1 = 0.6	2.82e-10	3.29e-10	3.93e-10	4.6e-10	5.37e-10
x1 = 0.8	2.56e-10	3.06e-10	3.72e-10	4.3e-10	5.03e-10

OCCOCCOCCO [triethylene glycol] + O
binary diffusion coefficient [m2/s]
Conditions	303.2 K	308.2 K	313.2 K	318.2 K	323.2 K
x1 = 0	8.15e-10	8.99e-10	9.94e-10	1.07e-09	1.18e-09
x1 = 0.2	3.71e-10	4.3e-10	5.1e-10	5.48e-10	6.3e-10
x1 = 0.4	2.78e-10	3.12e-10	3.7e-10	4.27e-10	4.8e-10
x1 = 0.6	2.33e-10	2.7e-10	3.25e-10	3.79e-10	4.44e-10
x1 = 0.8	2.01e-10	2.41e-10	2.98e-10	3.51e-10	4.15e-10
